The source of these data is ChEMBL document CHEMBL1155023, “C-geranylated chalcones from the stems of Angelica keiskei with superoxide-scavenging activity” (J Nat Prod, 2008).

This assay is described as follows: Superoxide-scavenging activity assessed as inhibition of formation of WST1 formazan.
Turning to `C=C(C)C(O)CC/C(C)=C/Cc1c(O)ccc(C(=O)/C=C/c2ccc(O)cc2)c1O` (centres undefined) [XANTHOANGELOL B], the IC50 (as a rule, the concentration needed to halve the response being measured) was found to be 920 nM.

In the case of `CC(C)(O)/C=C/CC(C)(O)[C@H]1Oc2ccc(C(=O)/C=C/c3ccc(O)cc3)c(O)c2[C@@H]1O` (some centres undefined) [XANTHOKEISMINS B], the IC50 is 690 nM.

`CC(C)=CCC/C(C)=C/Cc1c(O)ccc(C(=O)/C=C/c2ccc(O)cc2)c1O` [XANTHOANGELOL]: the IC50 was over 40000 nM.

Consider `CC(C)=CCC/C(C)=C/CC/C(C)=C/CO` [FARNESOL], for which the IC50 is over 40000 nM.

Take `Oc1ccc(/C=C/c2cc(O)cc(O)c2)cc1` [RESVERATROL]: the IC50 came out at 5300 nM.

As for `O=C1O[C@H]([C@@H](O)CO)C(O)=C1O` [ASCORBIC ACID], the IC50 was over 40000 nM.

Take `C/C(=C\Cc1c(O)ccc(C(=O)/C=C/c2ccc(O)cc2)c1O)C/C=C/C(C)(C)O` [XANTHOKEISMINS A]: the IC50 was 510 nM.

Consider `C=C(C)C(O)CCC(C)(O)[C@H]1Oc2ccc(C(=O)/C=C/c3ccc(O)cc3)c(O)c2[C@@H]1O` (relative stereo) [XANTHOKEISMINS C], for which the IC50 came to 1100 nM.

As to `O=C(/C=C/c1ccc(O)cc1)c1ccc(O)cc1O` [ISOLIQUIRITIGENIN], the IC50 stood at 15000 nM.
